Results on 31 molecules are retold here after patent US20240246992A1, “MACROCYCLIC LRRK2 KINASE INHIBITORS” (LES LABORATOIRES SERVIER, priority 2021, published 2024).

pIC50: −log10 of the molar value.

Chain of human recombinant LRRK2 protein (Q5S007 whole entry): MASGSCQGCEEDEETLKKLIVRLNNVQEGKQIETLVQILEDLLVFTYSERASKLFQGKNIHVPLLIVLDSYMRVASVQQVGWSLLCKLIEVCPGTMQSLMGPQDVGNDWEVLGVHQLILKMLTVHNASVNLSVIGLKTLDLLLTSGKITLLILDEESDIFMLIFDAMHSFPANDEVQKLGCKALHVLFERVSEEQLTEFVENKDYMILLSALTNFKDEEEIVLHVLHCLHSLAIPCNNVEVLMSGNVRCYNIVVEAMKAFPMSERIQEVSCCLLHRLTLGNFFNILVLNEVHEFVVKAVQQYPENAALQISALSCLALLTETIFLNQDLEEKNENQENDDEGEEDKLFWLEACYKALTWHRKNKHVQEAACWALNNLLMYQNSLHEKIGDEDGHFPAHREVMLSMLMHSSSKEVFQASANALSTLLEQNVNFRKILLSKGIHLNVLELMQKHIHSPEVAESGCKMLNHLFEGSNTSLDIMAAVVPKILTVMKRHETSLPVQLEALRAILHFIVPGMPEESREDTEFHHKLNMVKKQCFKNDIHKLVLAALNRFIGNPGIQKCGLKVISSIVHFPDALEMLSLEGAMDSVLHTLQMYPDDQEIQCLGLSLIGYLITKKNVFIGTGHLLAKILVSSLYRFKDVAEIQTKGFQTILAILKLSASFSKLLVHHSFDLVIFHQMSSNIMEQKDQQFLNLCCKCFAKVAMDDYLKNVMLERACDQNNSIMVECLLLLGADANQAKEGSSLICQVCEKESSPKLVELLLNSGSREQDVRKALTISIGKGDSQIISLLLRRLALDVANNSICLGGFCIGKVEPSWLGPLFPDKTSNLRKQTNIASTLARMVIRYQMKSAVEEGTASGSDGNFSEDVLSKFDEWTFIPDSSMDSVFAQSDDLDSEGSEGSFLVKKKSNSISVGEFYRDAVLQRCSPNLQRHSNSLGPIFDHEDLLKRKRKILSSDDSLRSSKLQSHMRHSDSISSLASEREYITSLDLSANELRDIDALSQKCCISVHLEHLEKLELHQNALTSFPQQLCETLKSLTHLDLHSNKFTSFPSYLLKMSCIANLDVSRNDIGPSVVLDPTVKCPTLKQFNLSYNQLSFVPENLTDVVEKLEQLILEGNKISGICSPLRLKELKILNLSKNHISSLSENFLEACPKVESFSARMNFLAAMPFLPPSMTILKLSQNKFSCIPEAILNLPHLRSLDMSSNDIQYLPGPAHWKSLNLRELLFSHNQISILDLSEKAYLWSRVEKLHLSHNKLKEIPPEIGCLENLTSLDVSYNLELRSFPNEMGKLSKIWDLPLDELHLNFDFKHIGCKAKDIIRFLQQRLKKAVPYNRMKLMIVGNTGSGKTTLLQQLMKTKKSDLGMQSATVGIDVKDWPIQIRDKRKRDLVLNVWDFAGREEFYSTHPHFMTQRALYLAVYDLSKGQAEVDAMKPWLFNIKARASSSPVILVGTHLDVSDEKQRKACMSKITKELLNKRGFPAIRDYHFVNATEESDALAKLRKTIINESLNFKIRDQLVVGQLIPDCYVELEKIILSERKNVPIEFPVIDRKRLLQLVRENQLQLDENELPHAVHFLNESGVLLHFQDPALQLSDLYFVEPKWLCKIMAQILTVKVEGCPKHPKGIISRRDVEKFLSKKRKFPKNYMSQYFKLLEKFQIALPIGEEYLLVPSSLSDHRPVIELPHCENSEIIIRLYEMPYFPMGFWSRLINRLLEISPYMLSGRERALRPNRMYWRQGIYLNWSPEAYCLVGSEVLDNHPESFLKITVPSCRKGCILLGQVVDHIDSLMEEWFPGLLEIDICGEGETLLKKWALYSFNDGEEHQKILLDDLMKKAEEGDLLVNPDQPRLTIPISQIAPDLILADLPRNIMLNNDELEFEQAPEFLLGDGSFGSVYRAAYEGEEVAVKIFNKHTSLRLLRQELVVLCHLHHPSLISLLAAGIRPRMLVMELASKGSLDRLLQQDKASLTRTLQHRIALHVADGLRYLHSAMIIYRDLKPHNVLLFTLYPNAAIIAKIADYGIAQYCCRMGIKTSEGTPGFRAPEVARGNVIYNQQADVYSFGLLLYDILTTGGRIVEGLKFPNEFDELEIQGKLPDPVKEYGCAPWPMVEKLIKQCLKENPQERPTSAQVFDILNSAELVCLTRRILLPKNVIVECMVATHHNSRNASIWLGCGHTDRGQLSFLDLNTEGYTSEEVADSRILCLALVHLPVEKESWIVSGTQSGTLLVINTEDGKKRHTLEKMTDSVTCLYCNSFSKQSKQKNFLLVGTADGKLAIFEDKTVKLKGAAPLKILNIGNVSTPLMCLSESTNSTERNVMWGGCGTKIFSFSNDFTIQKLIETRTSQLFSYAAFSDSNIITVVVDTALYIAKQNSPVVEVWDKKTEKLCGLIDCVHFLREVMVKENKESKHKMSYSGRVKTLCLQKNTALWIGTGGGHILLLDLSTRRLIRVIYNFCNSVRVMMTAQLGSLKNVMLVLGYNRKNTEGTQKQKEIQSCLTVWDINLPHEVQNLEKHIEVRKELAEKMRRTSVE

The test deals with human recombinant LRRK2 protein (Homo sapiens, UniProt Q5S007). Put plainly: LRRK2 kinase activity assay (ADP-Glo, LRRKtide peptide). It counts as biochemical. The following applies: human recombinant LRRK2 wt, LRRKtide peptide and ATP, 1 h at 37° C. The method in brief:
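ADP-Glo luminescence read-out of a peptide assay: compound, ATP and LRRKtide substrate combined with recombinant human LRRK2 and incubated at 37 °C for 1 h. Ten-point data, N=2, curve-fitted to IC50.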
For orientation: In ADP-Glo the light output rises with the ADP produced.
Regarding `C[C@@H]1COc2ccc3[nH]nc(c3c2)-c2cccc(c2)OCC(=O)N[C@H]1C` [Example 168, (11S,12S)-11,12-dimethyl-7,14-dioxa-10,19,20-triazatetracyclo[13.5.2.1^2,6.0^18,21]tricosa-1(20),2(23),3,5,15(22),16,18(21)-heptaen-9-one], the pIC50 was more than 7.00.

For the molecule `C[C@@H]1CNCCO[C@@H](C)c2cncc(c2)-c2n[nH]c3ccc(cc23)O1` (single isomer, unassigned) [Example 234, (7S or 7R,13R)-7,13-dimethyl-8,14-dioxa-4,11,19,20-tetraazatetracyclo[13.5.2.1^2,6.0^18,21]tricosa-1(20),2(23),3,5,15(22),16,18(21)-heptaene], the pIC50 is more than 6.00. As for `CC1(C)COCCCOc2ccc3[nH]nc(c3c2)-c2cnn(c2)C1` [Example 31, 7,7-dimethyl-9,13-dioxa-4,5,18,19-tetraazatetracyclo[12.5.2.1^2,5.0^17,20] docosa-1(19),2(22),3,14(21),15,17(20)-hexaene], the pIC50 was more than 8.00. In the case of `C[C@@H]1CCn2ncc(n2)-c2n[nH]c3ccc(cc23)O[C@H](C)CCO1` [Example 127, (8R,12R)-8,12-dimethyl-9,13-dioxa-4,5,18,19,22-pentaazatetracyclo [12.5.2.1^2,5.0^17,20]docosa-1(19),2(22),3,14(21),15,17(20)-hexaene], the pIC50 was more than 8.00. With `C[C@@H]1CCOCCCn2cc(cn2)-c2n[nH]c3cnc(cc23)O1` [Example 245, (12R)-12-methyl-9,13-dioxa-4,5,15,18,19-pentaaza tetracyclo[12.5.2.1^2,5.0^17,20]docosa-1(19),2(22),3,14(21),15,17(20)-hexaene] the figure was more than 8.00. For the molecule `O=C1COc2cc(cc(N3CCN(C4CC4)CC3)c2)-c2n[nH]c3ccc(cc23)OCCCN1` [Example 217, 4-(4-cyclopropylpiperazin-1-yl)-7,14-dioxa-10,19,20-triazatetracyclo[13.5.2.1^2,6.0^18,21]tricosa-1(20),2(23),3,5,15,17,21-heptaen-9-one], the pIC50 was more than 8.00.

`C[C@@H]1COc2ccc3[nH]nc(c3c2)-c2cc(C#N)n(c2)CCOCCO1` [Example 86, (12R)-12-methyl-8,11,14-trioxa-5,19,20-triazatetracyclo [13.5.2.1^2,5.0^18,21]tricosa-1(20),2(23),3,15(22),16,18(21)-hexaene-4-carbonitrile]: the pIC50 is more than 8.00. Then `C[C@@H]1COCCOCC(F)n2cc(cn2)-c2n[nH]c3ccc(cc23)O1` (single isomer, unassigned) [Example 106, (6S*,13R)-6-fluoro-13-methyl-8,11,14-trioxa-4,5,19, 20-tetraazatetracyclo[13.5.2.1^2,5.0^18,21]tricosa-1(20),2(23),3,15(22),16,18(21)-hexaene], with more than 7.00.

`C[C@@H]1CCOC[C@H](C)Oc2ccc3[nH]nc(c3c2)-c2cncc(c2)O1` [Example 18, (8R,13S)-8,13-dimethyl-7,11,14-trioxa-4,19,20-triazatetracyclo[13.5.2.1^2,6. 0^18,21]tricosa-1(20),2(23),3,5,15(22),16,18(21)-heptaene]: the pIC50 was more than 8.00. Turning to `Cc1cc2cc(c1)-c1n[nH]c3ccc(cc13)OCCCNC(=O)CO2` [Example 144, 4-methyl-7,14-dioxa-10,19,20-triazatetracyclo[13.5.2.1^2,6.0^18,21]tricosa-1(20),2(23),3,5,15,17,21-heptaen-9-one], the pIC50 is more than 8.00.

As to `O=C1CCc2cncc(c2)-c2n[nH]c3ccc(cc23)OCCCN1` [Example 220, 14-oxa-4,10,19,20-tetraazatetracyclo[13.5.2.1^2,6.0^18,21]tricosa-1(20),2(23),3,5,15(22),16,18(21)-heptaen-9-one], the pIC50 is more than 8.00.

As for `C[C@@H]1CCn2cc(cn2)-c2n[nH]c3ccc(cc23)O[C@H](C)CCO1` [Example 98, (8R,12R)-8,12-dimethyl-9,13-dioxa-4,5,18,19-tetraazatetracyclo[12.5.2.1^2,5.0^17,20]docosa-1(19),2(22),3,14(21),15,17(20)-hexaene], the pIC50 was more than 8.00. Regarding `c1cc2[nH]nc3c2cc1NCCCOCCOc1cncc-3c1` [Example 4, 7,10-dioxa-4,14,19,20-tetraazatetracyclo[13.5.2.1^2,6.0^18,21]tricosa-1(20),2(23), 3,5,15(22),16,18(21)-heptaene], the pIC50 was more than 8.00.

Consider `C[C@H]1COCCCOc2nccc(n2)-c2n[nH]c3ccc(cc23)O1` [Example 26, (13S)-13-methyl-7,11,14-trioxa-5,19,20,23-tetraazatetracyclo[13.5.2.1^2,6.0^18,21]tricosa-1(20),2(23),3,5,15(22),16,18(21)-heptaene], for which the pIC50 was more than 8.00. Then `C[C@@H]1CNCC[C@H](C)Oc2ccc3[nH]nc(c3c2)-c2cncc(c2)O1` (single isomer, unassigned) [Example 229, (8R or 8S,13S)-8,13-dimethyl-7,14-dioxa-4,10,19,20-tetraazatetracyclo[13.5.2.1^2,6.0^18,21]tricosa-1(20),2,4,6(23),15(22),16,18(21)-heptaene], with more than 8.00. Consider `C[C@H]1CCNC(=O)CCn2ncc(n2)-c2n[nH]c3ccc(cc23)O1` [Example 226, (12S)-12-methyl-13-oxa-4,5,9,18,19,22-hexaazatetracyclo [12.5.2.1^2,5.0^17,20]docosa-1(19),2(22),3,14(21),15,17(20)-hexaen-8-one], for which the pIC50 is more than 8.00. In the case of `C[C@@H]1CCOCCOCCn2cc(cn2)-c2n[nH]c3ccc(cc23)O1` [Example 131, (14R)-14-methyl-8,11,15-trioxa-4,5,20,21-tetraazatetracyclo[14.5.2.1^2,5.0^19,22]tetracosa-1(21),2(24),3,16(23),17,19(22)-hexaene], the pIC50 is more than 8.00.

On to `C[C@H]1COCC[C@H](C)Oc2ccc3[nH]nc(c3c2)-c2cnn(c2)C1` [Example 52, (7R,12S)-7,12-dimethyl-9,13-dioxa-4,5,18,19-tetraazatetracyclo[12.5.2.1^2,5.0^17,20]docosa-1(19),2(22),3,14(21),15,17(20)-hexaene], for which the pIC50 is more than 8.00. On to `O=C1COc2cc(cc(N3CCC(F)(F)C3)c2)-c2n[nH]c3ccc(cc23)OCCCN1` [Example 206, 4-(3,3-difluoropyrrolidin-1-yl)-7,14-dioxa-10,19,20-triazatetracyclo[13.5.2.1^2,6.0^18,21]tricosa-1(20),2(23),3,5,15,17,21-heptaen-9-one], for which the pIC50 is more than 8.00. Regarding `FC1(F)COCCCn2cc(cn2)-c2n[nH]c3ccc(cc23)OC1` [Example 111, 11,11-difluoro-9,13-dioxa-4,5,18,19-tetraazatetracyclo[12.5.2.1^2,5.0^17,20] docosa-1(19),2(22),3,14(21),15,17(20)-hexaene], the pIC50 is more than 7.00. Then `C[C@@H]1CCOC[C@@H](C)Oc2cncc(c2)-c2n[nH]c3ccc(cc23)O1` [Example 23, (8R,13R)-8,13-dimethyl-7,10,14-trioxa-4,19,20-triazatetracyclo[13.5.2.1^2,6.0^18,21]tricosa-1(20),2(23),3,5,15(22),16,18(21)-heptaene], with more than 8.00; and `O=C1COc2cc(C3=CCOC3)cc(c2)-c2n[nH]c3ccc(cc23)OCCCN1` [Example 211, 4-(2,5-dihydrofuran-3-yl)-7,14-dioxa-10,19,20-triazatetracyclo[13.5.2.1^2,6.0^18,21]tricosa-1(20),2(23),3,5,15,17,21-heptaen-9-one], with more than 8.00; and `O=C1CCc2cccc(c2)-c2n[nH]c3ccc(cc23)OCCCN1` [Example 166, 14-oxa-10,19,20-triazatetracyclo[13.5.2.1^2,6.0^18,21]tricosa-1(20),2(23),3,5,15(22),16,18(21)-heptaen-9-one], with more than 8.00. In the case of `C[C@@H]1OCCOCCn2cc(cn2)-c2n[nH]c3ccc(cc23)O[C@@H]1C` [Example 99, (12S,13R)-12,13-dimethyl-8,11,14-trioxa-4,5,19,20-tetraazatetracyclo[13.5.2.1^2,5.0^18,21]tricosa-1(20),2(23),3,15(22),16,18(21)-hexaene], the pIC50 is more than 8.00.

Take `O=C1COc2cc(cc(N3CCCC3)c2)-c2n[nH]c3ccc(cc23)OCCCN1` [Example 205, 4-(pyrrolidin-1-yl)-7,14-dioxa-10,19,20-triazatetracyclo [13.5.2.1^2,6.0^18,21]tricosa-1(20),2(23),3,5,15,17,21-heptaen-9-one]: the pIC50 was more than 8.00. In the case of `C[C@@H]1COCCOCCc2nc(cn2C)-c2n[nH]c3ccc(cc23)O1` [Example 76, (13R)-4,13-dimethyl-8,11,14-trioxa-4,19,20,23-tetraazatetracyclo[13.5.2.1^2,5.0^18,21]tricosa-1(20),2,5(23),15(22),16,18(21)-hexaene], the pIC50 was less than 6.00.

In the case of `c1cc2[nH]nc3c2cc1OCCCOCCCn1cc-3cn1` [Example 5, 9,13-dioxa-4,5,18,19-tetraazatetracyclo[12.5.2.1^2,5.0^17,20] docosa-1(19),2(22),3,14(21),15,17(20)-hexaene], the pIC50 was more than 8.00.

For `C[C@@H]1COc2ccc3[nH]nc(c3c2)-c2cnn(c2)CCOCCO1` [Example 67, (12R)-12-methyl-8,11,14-trioxa-4,5,19,20-tetraazatetracyclo[13.5.2.1^2,5.0^18,21]tricosa-1(20),2(23),3,15(22),16,18(21)-hexaene], the pIC50 is more than 8.00.

As to `CC1CCNC(=O)COc2cncc(c2)-c2n[nH]c3ccc(cc23)O1` (stereo not shown) [Example 158, 13-methyl-7,14-dioxa-4,10,19,20-tetraazatetracyclo[13.5.2.1^2,6.0^18,21]tricosa-1(20),2,4,6(23),15,17,21-heptaen-9-one], the pIC50 is more than 7.00. With `c1cc2[nH]nc3c2cc1OCCCOCCCn1ncc-3n1` [Example 74, 9,13-dioxa-4,5,18,19,22-pentaazatetracyclo[12.5.2.1^2,5.0^17,20]docosa-1(19), 2(22),3,14(21),15,17(20)-hexaene], the pIC50 is more than 8.00. With `c1cc2[nH]nc3c2cc1OCCOCCOCCn1cc-3cn1` [Example 63, 8,11,14-trioxa-4,5,19,20-tetraazatetracyclo[13.5.2.1^2,5.0^18,21]tricosa-1(20), 2(23),3,15(22),16,18(21)-hexaene] the figure was more than 8.00.

One may read the pIC50 as −log10 of the IC50, conventionally taken in molar units.
